ChEMBL document CHEMBL1821710, “Synthesis and antiproliferative evaluation of 3,5-disubstituted 1,2,4-triazoles containing flurophenyl and trifluoromethanephenyl moieties” (2011)

What was measured:
Assay type in all cases: functional
Jurkat = experiment: Growth inhibition of human Jurkat cells after 72 hrs by MTT assay
NCI-H226 = experiment: Growth inhibition of human NCI-H226 cells after 72 hrs by MTT assay; conditions: NCI-H226, 72 h
[1] = Growth inhibition of human NPC-TW01 cells after 72 hrs by MTT assay; conditions: NPC-TW01, 72 h

GI50 (Jurkat)	GI50 (NCI-H226)	Compound	GI50 [1]
> 100 µM	> 100 µM	COC(=O)c1nc(C)n(-c2ccccc2)n1	> 100 µM
> 100 µM	6.13 µM	COC(=O)c1nc(C)n(-c2ccccc2C(F)(F)F)n1	> 100 µM
> 100 µM	7.35 µM	COC(=O)c1nc(C)n(-c2cccc(Br)c2)n1	> 100 µM
10.6 µM	14.3 µM	COC(=O)c1nc(C)n(-c2cccc(C(F)(F)F)c2)n1	> 100 µM
9.1 µM	16.6 µM	COC(=O)c1nc(C)n(-c2ccc(C(F)(F)F)cc2)n1	> 100 µM
> 100 µM	> 100 µM	COC(=O)c1nc(C)n(-c2ccc(OC)cc2)n1	9.92 µM
65.9 µM	84 µM	COC(=O)c1nc(C)n(-c2ccc(Cl)cc2)n1	17.5 µM
8.7 µM	11.7 µM	COC(=O)c1nc(C)n(-c2ccc(F)cc2)n1	15.2 µM
11 µM	71.3 µM	CCc1nc(C(=O)OC)nn1-c1ccc(F)cc1	15.8 µM
> 100 µM	6.17 µM	COC(=O)c1nc(C(C)C)n(-c2ccc(F)cc2)n1	> 100 µM
> 100 µM	6.4 µM	CCCCc1nc(C(=O)OC)nn1-c1ccc(F)cc1	> 100 µM
9.42 µM	16.3 µM	COC(=O)c1nc(C2CC2)n(-c2ccc(F)cc2)n1	95.9 µM
9.55 µM	70.5 µM	COC(=O)c1nc(C2CCCC2)n(-c2ccc(F)cc2)n1	10.4 µM
> 100 µM	6.26 µM	COC(=O)c1nc(C2CCCCC2)n(-c2ccc(F)cc2)n1	30.5 µM
9.32 µM	91.6 µM	COC(=O)c1nc(-c2ccoc2)n(-c2ccc(F)cc2)n1	11.7 µM
54 µM	6.94 µM	COC(=O)c1nc(-c2ccsc2)n(-c2ccc(F)cc2)n1	10.7 µM
9.01 µM	72 µM	COC(=O)c1nc(-c2ccc[nH]2)n(-c2ccc(F)cc2)n1	9.58 µM
10 µM	89.3 µM	COC(=O)c1nc(-c2ccccc2)n(-c2ccc(F)cc2)n1	15.6 µM
18.5 µM	79.3 µM	COC(=O)c1nc(-c2ccc3ccccc3c2)n(-c2ccc(F)cc2)n1	> 100 µM
> 100 µM	5.71 µM	COC(=O)c1nc(C2CCCC2)n(-c2ccc(C(F)(F)F)cc2)n1	56.4 µM
> 100 µM	5.76 µM	COC(=O)c1nc(C2CCCCC2)n(-c2ccc(C(F)(F)F)cc2)n1	> 100 µM
97.2 µM	6.01 µM	COC(=O)c1nc(-c2ccoc2)n(-c2ccc(C(F)(F)F)cc2)n1	> 100 µM
> 100 µM	5.74 µM	COC(=O)c1nc(-c2ccsc2)n(-c2ccc(C(F)(F)F)cc2)n1	34.9 µM
> 100 µM	5.65 µM	COC(=O)c1nc(-c2ccc[nH]2)n(-c2ccc(C(F)(F)F)cc2)n1	> 100 µM
> 100 µM	5.61 µM	CCOC(=O)c1nc(-c2ccc[nH]2)n(-c2ccc(C(F)(F)F)cc2)n1	76.4 µM
> 100 µM	5.71 µM	CCOC(=O)c1nc(-c2ccc[nH]2)n(-c2ccc(F)cc2)n1	64.3 µM
1.25 µM	10.2 µM	CN(Cc1cnc2nc(N)nc(N)c2n1)c1ccc(C(=O)N[C@@H](CCC(=O)O)C(=O)O)cc1 [METHOTREXATE]	0.1 µM
